This is an account of results in the SangsterLogP compilation.

The nature of the series: method code SF-HPLC, from DOI: 10.1021/jm4016729, PMID: 24422550. Particulars: pH 7.4.

Turning to `Cc1nc(C2=COC2)c(C(=O)NC2C3CC4CC2C(O)(C4)C3)s1` (configuration not stated), the logD (usually lipophilicity at a set pH, counting ionised and neutral species) was 1.5.

Regarding `O=C(NC1C2CC3CC1CC(O)(C3)C2)c1sc(C2CCCO2)nc1C1CC1` (configuration not stated), the logD came out at 2.4.
